# Test results: ChEMBL document CHEMBL4312043, “Discovery of Novel Neuraminidase Inhibitors by Structure-Based Virtual Screening, Structural Optimization, and Bioassay” (ACS Med Chem Lett, 2019)
# Target: not listed separately
# Test: Inhibition of clostridium neuraminidase using fluorescent substrate preincubated for 2 mins followed by substrate addition and measured after 30 mins by fluorescence based microplate reader analysis
row,SMILES,IC50 [µM]
1,COc1cc(/C=N\NC(=O)c2ccc(Cn3cc(Br)c([N+](=O)[O-])n3)o2)cc(OC)c1O,12.9
2,COc1cc(/C=N/NC(=O)c2cc(O)cc(O)c2)cc(OC)c1O,14.8
3,O=C(N/N=C/c1ccc(OS(=O)(=O)c2ccccc2)cc1)c1cccc([N+](=O)[O-])c1,8.44
4,CC(=O)Nc1ccc(/C=N/NC(=O)c2cc(O)cc(O)c2)cc1,13.8
5,O=C(N/N=C/c1ccc(F)c([N+](=O)[O-])c1)c1cc(O)c(O)c(O)c1,22.7
6,O=C(N/N=C/c1ccc(O)c([N+](=O)[O-])c1)c1cc(O)cc(O)c1,0.21
7,O=C(N/N=C/c1ccc(O)c([N+](=O)[O-])c1)c1cc(O)c(O)c(O)c1,9.67
8,CCOC(=O)c1ccc(N/N=C/c2cc(Br)cc([N+](=O)[O-])c2O)cc1,16
9,O=C(N/N=C/c1cc([N+](=O)[O-])ccc1F)c1cc(O)cc(O)c1,3.97
10,O=C(N/N=C/c1cc(Cl)ccc1[N+](=O)[O-])c1cc(O)c(O)c(O)c1,10.6
11,O=C(N/N=C/c1cc([N+](=O)[O-])ccc1O)c1cc(O)cc(O)c1,1.92
12,COc1cc(/C=N/NC(=O)c2cc(O)cc(O)c2)ccc1O,11.6
13,O=C(N/N=C/c1cc(Cl)ccc1[N+](=O)[O-])c1cc(O)cc(O)c1,3.71
14,O=C(N/N=C/c1cc([N+](=O)[O-])ccc1F)c1cc(O)c(O)c(O)c1,36.6
15,O=C(N/N=C/c1ccc(F)c([N+](=O)[O-])c1)c1cc(O)cc(O)c1,5.47
16,CCC(CC)O[C@@H]1C=C(C(=O)O)C[C@H](N)[C@H]1NC(C)=O [OSELTAMIVIR CARBOXYLATE],3.04
17,COc1ccc(Br)cc1C(=O)N/N=C/c1ccc(Oc2ccc([N+](=O)[O-])cc2C#N)cc1,7.71

# Target: Neuraminidase (Influenza A virus (A/Puerto Rico/8/1934(H1N1)), UniProt P03468)
# Sequence (P03468 whole entry): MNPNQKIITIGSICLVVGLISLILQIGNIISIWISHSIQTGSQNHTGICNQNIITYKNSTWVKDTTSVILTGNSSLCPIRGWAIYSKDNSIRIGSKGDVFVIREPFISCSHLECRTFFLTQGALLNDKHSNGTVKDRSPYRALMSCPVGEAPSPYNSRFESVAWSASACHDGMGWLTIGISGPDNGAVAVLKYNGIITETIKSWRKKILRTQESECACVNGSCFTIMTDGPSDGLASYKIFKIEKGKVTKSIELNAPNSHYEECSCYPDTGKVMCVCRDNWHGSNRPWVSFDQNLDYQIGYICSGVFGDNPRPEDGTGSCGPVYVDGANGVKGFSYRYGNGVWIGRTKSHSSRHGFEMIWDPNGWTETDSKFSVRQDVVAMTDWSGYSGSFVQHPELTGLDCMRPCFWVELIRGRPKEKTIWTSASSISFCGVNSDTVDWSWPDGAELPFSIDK
# Test: Inhibition of Influenza A virus H1N1 neuraminidase using MU-NANA as substrate preincubated for 10 mins followed by substrate addition and measured after 15 mins by fluorescence based assay
row,SMILES,IC50 [µM]
1,CC1=NN(c2cccc(C(=O)O)c2)C(=O)/C1=C\c1ccc(-c2cc(Cl)ccc2C(=O)O)o1,37
